Patent publication US20220009894A1, “1,2,3,4-TETRAHYDROQUINOXALINE DERIVATIVE, PREPARATION METHOD THEREFOR AND APPLICATION THEREOF” (Abbisko Therapeutics Co., Ltd., priority 2019, published 2022)

Columns and labels:
RORγt = biological target: T1, RORγt (Homo sapiens, UniProt P51449); assay: RORγt cellular reporter gene detection assay; assay type: cell-based; conditions: 24 hrs; for EC50: HEK 293 cells co-transfected with pFN26A-RORγt-LBD and pG14.35, in presence of antagonist Ursolic acid, top concentration 50 μM; for Cellular Reporter Assay Amax: upper activation limit, HEK 293 cells, in presence of antagonist Ursolic acid;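 as to Cellular Reporter Assay Amax: Ursolic Acid added as 5 µL of 20 µM medium per well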
T1 construct: The plasmid of pFN26A-RORγt-LBD and pG14.35 (Promega, Cat. No. E1370) were co-transfected into HEK 293 cells; expressed in transfected cells; host or cells: HEK 293 cells (Cat. No. GNHu18)
T1 sequence (P51449 269-508 limits assumed): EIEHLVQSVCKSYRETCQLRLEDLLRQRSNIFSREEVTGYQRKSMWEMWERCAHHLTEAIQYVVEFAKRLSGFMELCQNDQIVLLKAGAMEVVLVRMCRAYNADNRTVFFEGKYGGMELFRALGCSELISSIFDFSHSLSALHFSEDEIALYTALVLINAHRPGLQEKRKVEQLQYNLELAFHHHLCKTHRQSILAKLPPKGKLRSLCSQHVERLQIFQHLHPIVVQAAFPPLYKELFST
Method in brief: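 Compounds, titrated 4-fold from a 50 μM top concentration, were added with Ursolic acid to HEK293 cells carrying a RORγt-LBD plasmid and a reporter plasmid. After 24 h at 37° C, dual firefly/Renilla luciferase readout; four-parameter curves gave EC50 and maximal activation (Amax).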

RORγt-LBD = biological target: T2, RORγt-LBD (Homo sapiens, UniProt P51449); assay: Time-resolved fluorescence resonance energy-transfer assay (TR-FRET), co-activator peptide recruitment; assay type: biochemical; set-up: TR-FRET Biochemical Amax: unit not given here; conditions: for EC50: His-RORγt-LBD 30 nM, SRC peptide 500 nM, agonistic activity, averages of one or more measurements, read-out: TR-FRET Biochemical EC50/; for TR-FRET Biochemical Amax: upper activation limit, His-RORγt-LBD, SRC peptide
T2 sequence (P51449 269-508 limits assumed): T1 sequence (P51449 269-508 limits assumed)
Method in brief: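 This agonist-mode TR-FRET used 30 nM His-tagged RORγt-LBD, 500 nM biotinylated SRC peptide, 0.25 nM Eu-anti-His and 5 nM APC-streptavidin in pH 7.0 Tris/KCl buffer with DTT and Triton. A 7-concentration, 5-fold compound series was incubated at 4 °C overnight plus 1 h at room temperature, and the 665/615 nm signal was read.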

Structure (SMILES) | EC50 (RORγt) [nM] | Cellular Reporter Assay Amax (RORγt) | EC50 (RORγt-LBD) [nM] | TR-FRET Biochemical Amax (RORγt-LBD)
COc1ncc(C(F)(F)F)cc1S(=O)(=O)N1C[C@@H]2CN(CC(=O)O)CCN2c2ccc(-c3cc(F)cc(OC(F)F)c3)cc21 [Example 93, (S)-2-(8-(3-(difluoromethoxy)-5-fluorophenyl)-6-((2-methoxy-5-(trifluoromethyl)pyridin-3-yl)sulfonyl)-1,2,4,4a,5,6-hexahydro-3H-pyrazino[1,2-a]quinoxalin-3-yl)acetic acid] | 264 | 2.1 | 46.4 | 0.51
COC(=O)CN1CCN2c3ccc(-c4cc(F)cc(OC(F)F)c4)cc3N(S(=O)(=O)c3cc(C(F)(F)F)cnc3OCCO)C[C@@H]2C1 [Example 90, methyl (S)-2-(8-(3-(difluoromethoxy)-5-fluorophenyl)-6-((2-(2-hydroxyethoxy)-5-(trifluoromethyl)pyridin-3-yl)sulfonyl)-1,2,4,4a,5,6-hexahydro-3H-pyrazino[1,2-a]quinoxalin-3-yl)acetate] | 368 | 1.8 | 20.6 | 0.86
CC(=O)N1CCN2c3ccc(/C=C/c4c(Cl)cccc4C(F)(F)F)cc3N(S(=O)(=O)c3cccc(C(F)(F)F)c3)C[C@@H]2C1 [Example 14, (S,E)-1-(8-(2-chloro-6-(tri-fluoromethyl)styryl)-6-((3-(trifluoromethyl)phenyl)sul-fonyl)-1,2,4,4a,5,6-hexa-hydro-3H-pyrazino[1,2-a]quinoxalin-3-yl)ethan-1-one] | 69.7 | 3.1 | 30.5 | 0.89
NS(=O)(=O)N1CCN2c3ccc(/C=C/c4c(Cl)cccc4C(F)(F)F)cc3N(S(=O)(=O)c3cccc(C(F)(F)F)c3)C[C@@H]2C1 [Example 68, (R,E)-8-(2-chloro-6-(trifluorometh-yl)styryl)-6-((3-(trifluorometh-yl)phenyl)sulfonyl)-1,2,4,4a,5,6-hexahydro-3H-pyrazino[1,2-a]quinoxaline-3-sulfonamide] | 151 | 2.5 | 30.5 | 1.03
C/C(=C\c1ccc2c(c1)N(S(=O)(=O)c1cccc(C(F)(F)F)c1)C[C@@H]1CN(C(C)(CO)CO)CCN21)c1c(F)cccc1Cl [Example 71, (S,E)-2-(8-(2-(2-chloro-6-fluorophenyl)prop-1-en-1-yl)-6-((3-(trifluoromethyl)phenyl)sulfonyl)-1,2,4,4a,5,6-hexahydro-3H-pyrazino[1,2-a]quinoxalin-3-yl)-2-methylpropane-1,3-diol] | 498 | 3.5 | 40.5 | 0.97
N#Cc1cccc(-c2ccc3c(c2)N(S(=O)(=O)c2cccc(C(F)(F)F)c2)C[C@@H]2CN(CC(=O)O)CCN32)c1F [Example 94, (S)-2-(8-(3-cyano-2-fluorophenyl)-6-((3-(trifluoromethyl)phenyl)sulfonyl)-1,2,4,4a,5,6-hexahydro-3H-pyrazino[1,2-a]quinoxalin-3-yl)acetic acid] | 3550 | 1.8 | 159 | 0.27
CS(=O)(=O)CCOC1CCN2c3ccc(-c4cc(F)cc(OC(F)F)c4)cc3N(S(=O)(=O)c3cccc(C(F)(F)F)c3)C[C@@H]2C1 (stereo partly drawn) [Example 111, (6aS)-3-(3-(difluoromethoxy)-5-fluorophenyl)-8-((methylsulfonyl)ethoxy)-5-((3-(trifluoromethyl)phenyl)sulfonyl)-6,6a,7,8,9,10-hexahydro-5H-pyrido[1,2-a]quinoxaline] | 564 | 3.2 | 18.9 | 0.64
NC(=O)C1(N2CCN3c4ccc(-c5cc(F)cc(OC(F)F)c5)cc4N(S(=O)(=O)c4cccc(C(F)(F)F)c4)C[C@@H]3C2)CCC1 [Example 80, (S)-1-(8-(3-(difluoromethoxy)-5-fluorophenyl)-6-((3-(trifluoro-methyl)phenyl)sulfonyl)-1,2,4,4a,5,6-hexahydro-3H-pyrazino[1,2-a]quinoxalin-3-yl)cyclobutane-1-carboxamide] | 209 | 3.4 | 39.3 | 1.04
O=C(O)CN1CCN2c3ccc(-c4cc(F)cc(OC(F)F)c4)cc3N(S(=O)(=O)C3C=C(C(F)(F)F)C=NC3=O)C[C@@H]2C1 (stereo partly drawn) [Example 92, 2-((4aS)-8-(3-(difluoromethoxy)-5-fluorophenyl)-6-((2-oxo-5-(trifluoromethyl)-2,3-dihydropyridin-3-yl)sulfonyl)-1,2,4,4a,5,6-hexahydro-3H-pyrazino[1,2-a]quinoxalin-3-yl)acetic acid] | ≥ 50000 |  | 848 | 
CC1(C)C=C(c2ccc3c(c2)N(S(=O)(=O)c2cccc(C(F)(F)F)c2)C[C@@H]2CN(C4COC4)CCN32)CC(C)(C)O1 [Example 34, (S)-3-(oxetan-3-yl)-8-(2,2,6,6-tetramethyl-3,6-dihydro-2H-pyran-4-yl)-6-((3-(trifluoro-methyl)phenyl)sulfonyl)-2,3,4,4a,5,6-hexahydro-1H-pyrazino[1,2-a]quinoxaline] | 156 | 1.7 | 3.91 | 1.11
COC(=O)CN1CCN2c3ccc(/C=C/c4c(Cl)cccc4C(F)(F)F)cc3N(S(=O)(=O)c3cccc(C(F)(F)F)c3)C[C@@H]2C1 [Example 45, methyl (S,E)-2-(8-(2-chloro-6-(trifluoromethyl)styryl)-6-((3-(trifluoromethyl)phenyl)sulfonyl)-1,2,4,4a,5,6-hexahydro-3H-pyrazino[1,2-a]quinoxalin-3-yl) acetate] | 375 |  | 10.5 | 
COC(=O)C(C)N1CCN2c3ccc(/C=C(\C)c4c(F)cccc4Cl)cc3N(S(=O)(=O)c3cccc(C(F)(F)F)c3)C[C@@H]2C1 (stereo partly drawn) [Example 23, methyl 2-((S)-8-((E)-2-(2-chloro-6-fluorophenyl)prop-1-en-1-yl)-6-((3-(trifluoromethyl)phenyl)sulfonyl)-1,2,4,4a,5,6-hexahydro-3H-pyrazino[1,2-a]quinoxalin-3-yl)propanoate] | 1080 | 3.8 | 17.2 | 0.79
NC(=O)C1(N2CCN3c4ccc(/C=C/c5c(Cl)cccc5C(F)(F)F)cc4N(S(=O)(=O)c4cccc(C(F)(F)F)c4)C[C@@H]3C2)CCC1 [Example 81, (S,E)-1-(8-(2-chloro-6-(trifluoro-methyl)styryl)-6-((3-(trifluoro-methyl)phenyl)sulfonyl)-1,2,4,4a,5,6-hexa-hydro-3H-pyrazino[1,2-a]quinoxalin-3-yl) cyclobutane-1-carboxamide] | 355 | 4.0 | 21.2 | 1.19
O=S(=O)(c1cccc(C(F)(F)F)c1)N1C[C@@H]2CN(C(CO)CO)CCN2c2ccc(-c3cc(F)cc(OC(F)F)c3)cc21 [Example 70, (S)-2-(8-(3-(difluoromethoxy)-5-fluorophenyl)-6-((3-(trifluorometh-yl)phenyl)sulfonyl)-1,2,4,4a,5,6-hexahydro-3H-pyrazino[1,2-a]quinoxalin-3-yl)propane-1,3-diol] | 531 | 4.2 | 64.2 | 0.99
O=S(=O)(c1cccc(C(F)(F)F)c1)N1C[C@@H]2COCCN2c2ccc(-c3cc(F)cc(OC(F)F)c3)cc21 [Example 98, (R)-8-(3-(difluoromethoxy)-5-fluorophenyl)-6-((3-(trifluoromethyl)phenyl)sulfonyl)-1,2,4,4a,5,6-hexahydro-[1,4]oxazino[4,3-a]quinoxaline] | 1540 | 5.4 | 20.6 | 0.75
C/C(=C\c1ccc2c(c1)N(S(=O)(=O)c1cccc(C(F)(F)F)c1)C[C@@H]1CN(C[C@H](O)CO)CCN21)c1c(F)cccc1Cl [Example 38, (S)-3-((S)-8-((E)-2-(2-chloro-6-fluorophenyl)prop-1-en-1-yl)-6-((3-(trifluoromethyl)phe-nyl)sulfonyl)-1,2,4,4a,5,6-hexa-hydro-3H-pyrazino[1,2-a]qui-noxalin-3-yl)propane-1,2-diol] | 290 | 3.7 | 40.7 | 1.23
O=C(O)CN1CCN2c3ccc(/C=C/c4c(Cl)cccc4C(F)(F)F)cc3N(S(=O)(=O)c3cccc(C(F)(F)F)c3)C[C@@H]2C1 [Example 20, (S,E)-2-(8-(2-chloro-6-(trifluoro-methyl)styryl)-6-((3-(tri-fluoromethyl)phenyl)sulfonyl)-1,2,4,4a,5,6-hexahydro-3H-pyrazino[1,2-a]quinoxalin-3-yl)acetic acid] | 418 | 6.3 | 32 | 1.01
